From US8067445B2, “N,N-disubstituted aminoalkylbiphenyl antagonists of prostaglandin D2 receptors” (Panmira Pharmaceuticals, LLC, priority 2008, dated 2011) come the findings set out here.

SMILES strings stand for the structures. Bounds are passed on as bounds.

The target in assay [1] is T1, recombinant human CRTH2 receptor (Homo sapiens, UniProt Q9Y5Y4).
T1 construct: expressed in transfected cells
T1 sequence (Q9Y5Y4 1-395): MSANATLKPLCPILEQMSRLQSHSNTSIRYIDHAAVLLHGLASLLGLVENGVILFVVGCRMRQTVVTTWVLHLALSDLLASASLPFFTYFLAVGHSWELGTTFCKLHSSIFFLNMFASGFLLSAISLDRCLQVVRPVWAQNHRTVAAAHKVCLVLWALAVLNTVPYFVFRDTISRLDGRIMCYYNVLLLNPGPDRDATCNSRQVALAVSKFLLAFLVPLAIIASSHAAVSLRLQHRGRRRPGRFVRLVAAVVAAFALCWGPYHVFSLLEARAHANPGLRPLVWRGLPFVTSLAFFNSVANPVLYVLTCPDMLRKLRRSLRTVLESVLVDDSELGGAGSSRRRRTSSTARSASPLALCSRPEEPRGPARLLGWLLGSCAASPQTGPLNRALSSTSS
Nature of the assay: GTPγS binding assay. The class given is biochemical. The following applies: +HSA (0.2% human serum albumin), 80 nM PGD2, CHO cell membranes; read-out: hDP2 GTPγS μM (+HSA). For orientation: GTPγS is a poorly hydrolysed GTP analogue; its binding reports G protein activation.

A further assay addresses T2, human DP2 receptor (Homo sapiens, UniProt Q9Y5Y4).
T2 construct: expressed in transfected cells
T2 sequence (Q9Y5Y4 1-395): T1 sequence (Q9Y5Y4 1-395)
Nature of the assay: DP2/CRTH2 radioligand binding assay ([3H]PGD2). The following applies: [3H]PGD2 binding, membranes of HEK293 cells expressing human DP2; read-out: hDP2. Summed up: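 Membranes from HEK293 cells stably expressing recombinant human DP2 incubated 60 min at room temperature with 1 nM [3H]PGD2 and compound in pH 7.4 Hepes/MnCl2/EDTA buffer, ± 0.2% human serum albumin. Bound radioactivity measured after filtration; non-specific binding defined with 10 μM PGD2. IC50 from titration curves.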

The target in another assay is T3, human DP1 receptor (Homo sapiens, UniProt Q13258).
T3 construct: tissue Biological Specialty Corporation; host or cells: human platelet membranes
T3 sequence (Q13258 1-359): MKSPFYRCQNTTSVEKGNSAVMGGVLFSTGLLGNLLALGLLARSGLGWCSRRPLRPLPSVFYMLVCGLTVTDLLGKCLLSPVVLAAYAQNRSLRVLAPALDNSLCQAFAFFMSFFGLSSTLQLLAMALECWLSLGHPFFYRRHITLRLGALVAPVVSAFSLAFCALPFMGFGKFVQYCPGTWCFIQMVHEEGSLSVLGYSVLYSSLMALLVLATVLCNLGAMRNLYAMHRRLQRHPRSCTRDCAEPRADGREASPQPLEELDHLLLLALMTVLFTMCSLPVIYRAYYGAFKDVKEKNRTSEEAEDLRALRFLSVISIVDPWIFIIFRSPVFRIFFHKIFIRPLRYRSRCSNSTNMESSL
As to the kind of experiment: DP1 radioligand binding assay ([3H]BWA868C, platelet membranes). The following applies: [3H]BWA868C binding, human platelet membranes; read-out: hDP1. In outline:
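Human platelet membranes (20 μg protein/well) incubated 60 min at room temperature with 2 nM [3H]BWA868C and compound in 50 mM Hepes, 10 mM MnCl2, 1 mM EDTA, pH 7.4, ± 0.2% human serum albumin. Bound radioactivity measured after filtration; nonspecific binding defined with 10 μM BWA868C; IC50 from titration curves.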

For `CCN(Cc1cc(C(F)(F)F)ccc1-c1cc(CC(=O)O)cc(C(F)(F)F)c1)C(=O)C1CC1` [Compound 1-136, {2′-[(Cyclopropanecarbonyl-ethyl-amino)-methyl]-5,4′-bis-trifluoromethyl-biphenyl-3-yl}-acetic acid], the IC50 in assay [1] was less than 0.3 µM; on human DP2 receptor, less than 300 nM; on human DP1 receptor, 1000 to 30000 nM.
On the same counts, the results for `CCN(Cc1cc(C(F)(F)F)ccc1-c1cc(C(C)C(=O)O)ccc1OC)C(C)=O` (stereo not drawn) [Compound 1-21, 2-{2′-[(Acetyl-ethyl-amino)-methyl]-6-methoxy-4′-trifluoromethyl-biphenyl-3-yl}-propionic acid] are less than 0.3 µM, less than 300 nM and 1000 to 30000 nM.
The like results for `CCN(Cc1cc(C(F)(F)F)ccc1-c1cc(CC(=O)O)ccc1OC)C(=O)C1(c2ccc(Cl)cc2Cl)CC1` [Compound 1-131, [2′-({[1-(2,4-Dichloro-phenyl)-cyclopropanecarbonyl]-ethyl-amino}-methyl)-6-methoxy-4′-trifluoromethyl-biphenyl-3-yl]-acetic acid] were, in that order, less than 0.3 µM, less than 300 nM and 1000 to 30000 nM.
For `COc1ccc(CC(=O)O)cc1-c1ccc(C(F)(F)F)cc1CN(C(C)=O)[C@@H]1CCc2ccccc21` [Compound 1-13, {2′-[((R)-Acetyl-indan-1-yl-amino)-methyl]-6-methoxy-4′-trifluoromethyl-biphenyl-3-yl}-acetic acid], the IC50 was 0.3 to 1 µM in assay [1], 300 to 1000 nM at human DP2 receptor and less than 300 nM at human DP1 receptor.
The like results for `CCN(Cc1cccc(OC)c1-c1cccc(CC(=O)O)c1)C(=O)OCc1cc(F)cc(F)c1` [Compound 1-123, (2′-{[(3,5-Difluoro-benzyloxycarbonyl)-ethyl-amino]-methyl}-6′-methoxy-biphenyl-3-yl)-acetic acid] were, in that order, 0.3 to 1 µM, less than 300 nM and 300 to 1000 nM.
The like results for `CCN(Cc1cc(C(F)(F)F)ccc1-c1cc(CC(=O)O)ccc1OC)C(=O)Nc1ccccc1` [Compound 1-121, [2′-(1-Ethyl-3-phenyl-ureidomethyl)-6-methoxy-4′-trifluoromethyl-biphenyl-3-yl]-acetic acid] were, in that order, less than 0.3 µM, less than 300 nM and 1000 to 30000 nM.
The like results for `COc1ccc(CC(=O)O)cc1-c1ccc(C(F)(F)F)cc1CN(Cc1ccccc1)C(C)=O` [Compound 1-19, {2′-[(Acetyl-benzyl-amino)-methyl]-6-methoxy-4′-trifluoromethyl-biphenyl-3-yl}-acetic acid] were, in that order, less than 0.3 µM, less than 300 nM and 1000 to 30000 nM.
Take `CCN(Cc1cc(C(F)(F)F)ccc1-c1cc(F)cc(CC(=O)O)c1)C(=O)OCc1ccccc1` [Compound 1-126, {2′-[(Benzyloxycarbonyl-ethyl-amino)-methyl]-5-fluoro-4′-trifluoromethyl-biphenyl-3-yl}-acetic acid]: the IC50 is less than 0.3 µM in assay [1], less than 300 nM on human DP2 receptor and 300 to 1000 nM at human DP1 receptor.
